Experimental data reported in paper PMC8725944, “Design and synthesis of chromone-nitrogen mustard derivatives and evaluation of anti-breast cancer activity” (Journal of Enzyme Inhibition and Medicinal Chemistry, 2021).

Test system: TNBC cell line MDA-MB-231
Test: CCK-8 assay, antiproliferative activity against MDA-MB-231
Settings: Homo sapiens, MDA-MB-231, 72 h, read-out: IC50 MDA-MB-231

SMILES | IC50 [µM]
COc1cccc2c1C(=O)c1c(O)c3c(c(O)c1C2=O)C[C@@](O)(C(=O)CO)C[C@@H]3O[C@H]1C[C@H](N)[C@H](O)[C@H](C)O1 [Adriamycin, reference compound] | 2.94 ± 0.12
N[C@@H](Cc1ccc(N(CCCl)CCCl)cc1)C(=O)O [Compound 5, melphalan, reference compound] | > 20
O=CN[C@@H](Cc1ccc(N(CCCl)CCCl)cc1)C(=O)O [Compound 6, formylmerphalan, reference compound] | > 20
CC(C)(C)OC(=O)N[C@@H](Cc1ccc(N(CCCl)CCCl)cc1)C(=O)O [Compound 7, Boc-protected melphalan, reference compound] | > 20
COC(=O)[C@H](Cc1ccc(N(CCCl)CCCl)cc1)NC(=O)CCC(=O)O [Compound 9, reference compound] | > 20
COC(=O)[C@H](Cc1ccc(N(CCCl)CCCl)cc1)NC(=O)CCCC(=O)O [Compound 10, reference compound] | > 20
Cc1ccc2occ(CO)c(=O)c2c1 [Compound 15] | > 20
COc1ccc2occ(CO)c(=O)c2c1 [Compound 16] | > 20
Cc1ccc2occ(COC(=O)c3ccc(N(CCCl)CCCl)cc3)c(=O)c2c1 [Compound 17a, (6-Methyl-4-oxo-4H-chromen-3-yl)methyl 4-(bis(2-chloroethyl)amino)benzoate] | 9.57 ± 0.65
Cc1ccc2occ(COC(=O)[C@H](Cc3ccc(N(CCCl)CCCl)cc3)NC=O)c(=O)c2c1 [Compound 17b, (6-Methyl-4-oxo-4H-chromen-3-yl)methyl (S)-3–(4-(bis(2-chloroethyl)amino)phenyl)-2-formamidopropanoate] | 13.2 ± 1.12
Cc1ccc2occ(COC(=O)[C@H](Cc3ccc(N(CCCl)CCCl)cc3)NC(=O)OC(C)(C)C)c(=O)c2c1 [Compound 17c, (6-Methyl-4-oxo-4H-chromen-3-yl)methyl (S)-3-(4-(bis(2-chloroethyl)amino)phenyl)-2-((tert-butoxycarbonyl)amino)propanoate] | > 20
COC(=O)[C@H](Cc1ccc(N(CCCl)CCCl)cc1)NC(=O)CCC(=O)OCc1coc2ccc(C)cc2c1=O [Compound 17d, (6-Methyl-4-oxo-4H-chromen-3-yl)methyl (S)-4-((3-(4-(bis(2-chloroethyl)amino)phenyl)-1-methoxy-1-oxopropan-2-yl)amino)-4-oxobutanoate] | 11.4 ± 0.2
COC(=O)[C@H](Cc1ccc(N(CCCl)CCCl)cc1)NC(=O)CCCC(=O)OCc1coc2ccc(C)cc2c1=O [Compound 17e, (6-Methyl-4-oxo-4H-chromen-3-yl)methyl (S)-5-((3-(4-(bis(2-chloroethyl)amino)phenyl)-1-methoxy-1-oxopropan-2-yl)amino)-5-oxopentanoate] | 8.32 ± 0.34
COc1ccc2occ(COC(=O)c3ccc(N(CCCl)CCCl)cc3)c(=O)c2c1 [Compound 18a, (6-Methoxy-4-oxo-4H-chromen-3-yl)methyl 4-(bis(2-chloroethyl)amino)benzoate] | 9.47 ± 0.38
COc1ccc2occ(COC(=O)[C@H](Cc3ccc(N(CCCl)CCCl)cc3)NC=O)c(=O)c2c1 [Compound 18b, (6-Methoxy-4-oxo-4H-chromen-3-yl)methyl (S)-3-(4-(bis(2-chloroethyl)amino)phenyl)-2-formamidopropanoate] | 11.5 ± 0.35
COc1ccc2occ(COC(=O)[C@H](Cc3ccc(N(CCCl)CCCl)cc3)NC(=O)OC(C)(C)C)c(=O)c2c1 [Compound 18c, (6-Methoxy-4-oxo-4H-chromen-3-yl)methyl (S)-3-(4-(bis(2-chloroethyl)amino)phenyl)-2-((tert-butoxycarbonyl)amino)propanoate] | 16.7 ± 0.69
COC(=O)[C@H](Cc1ccc(N(CCCl)CCCl)cc1)NC(=O)CCC(=O)OCc1coc2ccc(OC)cc2c1=O [Compound 18d, (6-Methoxy-4-oxo-4H-chromen-3-yl)methyl (S)-4-((3-(4-(bis(2-chloroethyl)amino)phenyl)-1-methoxy-1-oxopropan-2-yl)amino)-4-oxobutanoate] | 12.8 ± 0.32
COC(=O)[C@H](Cc1ccc(N(CCCl)CCCl)cc1)NC(=O)CCCC(=O)OCc1coc2ccc(OC)cc2c1=O [Compound 18e, (6-Methoxy-4-oxo-4H-chromen-3-yl)methyl (S)-5-((3-(4-(bis(2-chloroethyl)amino)phenyl)-1-methoxy-1-oxopropan-2-yl)amino)-5-oxopentanoate] | 8.98 ± 0.26
Cc1ccc2occ(CN)c(=O)c2c1 [Compound 19] | > 20
COc1ccc2occ(CN)c(=O)c2c1 [Compound 20] | > 20
Cc1ccc2occ(CNC(=O)c3ccc(N(CCCl)CCCl)cc3)c(=O)c2c1 [Compound 21a, 4-(Bis(2-chloroethyl)amino)-N-((6-methyl-4-oxo-4H-chromen-3-yl)methyl)benzamide] | 14.9 ± 1.06
Cc1ccc2occ(CNC(=O)[C@H](Cc3ccc(N(CCCl)CCCl)cc3)NC=O)c(=O)c2c1 [Compound 21b, (S)-3-(4-(bis(2-chloroethyl)amino)phenyl)-2-formamido-N-((6-methyl-4-oxo-4H-chromen-3-yl)methyl)propanamide] | 9.42 ± 0.29
Cc1ccc2occ(CNC(=O)[C@H](Cc3ccc(N(CCCl)CCCl)cc3)NC(=O)OC(C)(C)C)c(=O)c2c1 [Compound 21c, Tert-butyl (S)-(3-(4-(bis(2-chloroethyl)amino)phenyl)-1-(((6-methyl-4-oxo-4H-chromen-3-yl)methyl)amino)-1-oxopropan-2-yl)carbamate] | 12.7 ± 0.48
COC(=O)[C@H](Cc1ccc(N(CCCl)CCCl)cc1)NC(=O)CCC(=O)NCc1coc2ccc(C)cc2c1=O [Compound 21d, Methyl (S)-3-(4-(bis(2-chloroethyl)amino)phenyl)-2-(4-(((6-methyl-4-oxo-4H-chromen-3-yl)methyl)amino)-4-oxobutanamido)propanoate] | 6.87 ± 0.19
COC(=O)[C@H](Cc1ccc(N(CCCl)CCCl)cc1)NC(=O)CCCC(=O)NCc1coc2ccc(C)cc2c1=O [Compound 21e, Methyl (S)-3-(4-(bis(2-chloroethyl)amino)phenyl)-2–(5-(((6-methyl-4-oxo-4H-chromen-3-yl)methyl)amino)-5-oxopentanamido)propanoate] | 4.47 ± 0.15
COc1ccc2occ(CNC(=O)c3ccc(N(CCCl)CCCl)cc3)c(=O)c2c1 [Compound 22a, 4-(Bis(2-chloroethyl)amino)-N-((6-methoxy-4-oxo-4H-chromen-3-yl)methyl)benzamide] | 10.6 ± 0.58
COc1ccc2occ(CNC(=O)[C@H](Cc3ccc(N(CCCl)CCCl)cc3)NC=O)c(=O)c2c1 [Compound 22b, (S)-3-(4-(bis(2-chloroethyl)amino)phenyl)-2-formamido-N-((6-methoxy-4-oxo-4H-chromen-3-yl)methyl)propanamide] | 4.65 ± 0.22
COc1ccc2occ(CNC(=O)[C@H](Cc3ccc(N(CCCl)CCCl)cc3)NC(=O)OC(C)(C)C)c(=O)c2c1 [Compound 22c, Tert-butyl (S)-(3-(4-(bis(2-chloroethyl)amino)phenyl)-1-(((6-methoxy-4-oxo-4H-chromen-3-yl)methyl)amino)-1-oxopropan-2-yl)carbamate] | 9.87 ± 0.36
COC(=O)[C@H](Cc1ccc(N(CCCl)CCCl)cc1)NC(=O)CCC(=O)NCc1coc2ccc(OC)cc2c1=O [Compound 22d, Methyl (S)-3-(4-(bis(2-chloroethyl)amino)phenyl)-2-(4-(((6-methoxy-4-oxo-4H-chromen-3-yl)methyl)amino)-4-oxobutanamido)propanoate] | 3.05 ± 0.14
